Values quoted from earlier work, collected in patent US4181708A, “Rumen-stable pellets” (Eastman Kodak Company, priority 1978, dated 1980).
Like-named read-outs stand apart in the source and are kept apart here.

Settings: for Solubility: water

SMILES | pH of saturated solution | Solubility | Solubility (at 25° C.)
NC(=O)C[C@H](N)C(=O)O [L - Asparagine] | 4.7 | 3.1 g./100 g. water | 
N[C@@H](Cc1ccc(O)cc1)C(=O)O [L(-) - Tyrosine] | 7.3 |  | 
CSCCC(N)C(=O)O (racemic) [DL - Methionine] | 5.7 |  | 
NC(Cc1ccccc1)C(=O)O (racemic) [DL - Phenylalanine] | 5.6 |  | 3.0 g./100 g. water
CC(C)C[C@H](N)C(=O)O [L(-) - Lencine] |  |  | 2.0 g./100 g. water
N[C@@H](CS)C(=O)O [L(-) - Cysteine] | 3.7 | 0.01 g./100 g. water | 
CC(N)C(=O)O (racemic) [DL - Alanine] | 6.2 |  | 
N=C(N)NCCC[C@H](N)C(=O)O [L - Arginine] | 11.8 |  | 
